Data on 8 molecules can be found in patent USRE40086E1, “Method for treating bacterial infection with novel 7-substituted-9-substituted amino 6-demethyl-6-deoxytetracyclines” (Wyeth Holdings Corporation, priority 1991, dated 2008).

Holding throughout (test): MIC, agar dilution
Assay type in all cases: cell-based
In general terms: Agar dilution tests growth on a series of plates holding different concentrations.

One test relates to E. faecalis 12201. Particulars: E. faecalis 12201.
For test [1], the system named is S. aureus UBMS 88-4 (Sensitive). Particulars: S. aureus UBMS 88-4 (Sensitive).
For test [2], the system named is S. aureus ATCC 29213 (Sensitive). Particulars: S. aureus ATCC 29213 (Sensitive).
The test system of a further test is E. coli ATCC 25922. Particulars: E. coli ATCC 25922.
In test [3] the test system is S. aureus Smith (Sensitive). Particulars: S. aureus Smith (Sensitive).
Test [4] concerns S. aureus UBMS 88-7 (tetK). Particulars: S. aureus UBMS 88-7 (tetK).
For test [5], the system named is S. aureus UBMS 88-5 (tetM). Particulars: S. aureus UBMS 88-5 (tetM).
The test system of test [6] is E. coli UBMS 88-2 (Sensitive). Particulars: E. coli UBMS 88-2 (Sensitive).
The test system of test [7] is S. aureus IVES 2943 (meth. resistant). Particulars: S. aureus IVES 2943 (meth. resistant).
The test system of a further test is E. coli UBMS 88-1 (tetB). Particulars: E. coli UBMS 88-1 (tetB).
A further test has as its system E. faecalis ATCC 29212. Particulars: E. faecalis ATCC 29212.
The subject of test [8] is S. haemolyticus AVAH 88-3. Particulars: S. haemolyticus AVAH 88-3.
The test system of test [9] is S. aureus UBMS 90-1 (tetM). Particulars: S. aureus UBMS 90-1 (tetM).
Test [10] deals with S. aureus UBMS 90-2 (tetM). Particulars: S. aureus UBMS 90-2 (tetM).
The test system of test [11] is S. aureus UBMS 90-3 (Sensitive). Particulars: S. aureus UBMS 90-3 (Sensitive).
Test [12] has as its system S. aureus IVES 1983 (meth. resistant). Particulars: S. aureus IVES 1983 (meth. resistant).
In test [13] the test system is E. coli UBMS 89-2 (Sensitive). Particulars: E. coli UBMS 89-2 (Sensitive).
Another test relates to E. coli UBMS 89-1 (tetM). Particulars: E. coli UBMS 89-1 (tetM).

Each structure is given as a SMILES string. ≈ marks a conversion by molar mass, not a printed value.

Regarding `CC(=O)Nc1cc(N(C)C)c2c(c1O)C(=O)C1=C(O)[C@]3(O)C(=O)C(C(N)=O)=C(O)[C@@H](N(C)C)[C@@H]3C[C@@H]1C2` [B, 9-(Acetylamino)-7-(dimethylamino)-6-demethyl-6-deoxytetracycline], the MIC in the test with E. faecalis 12201 is 0.5 µg/mL (≈ 0.972 µM); in test [1], “≦0.06 μg/ml”; in test [2], 0.12 µg/mL (≈ 0.233 µM); in the test on E. coli ATCC 25922, 2 µg/mL (≈ 3.89 µM); in [3] it was 0.12 µg/mL (≈ 0.233 µM); in test [4], 4 µg/mL (≈ 7.77 µM). Besides, the MIC is 0.12 µg/mL (≈ 0.233 µM) in test [5]; 2 µg/mL (≈ 3.89 µM) in [6]; 64 µg/mL (≈ 124 µM) in test [7]; over 128 µg/mL against E. coli UBMS 88-1 (tetB); 0.12 µg/mL (≈ 0.233 µM) against E. faecalis ATCC 29212.
`CN(C)c1cc(NS(=O)(=O)c2cccc([N+](=O)[O-])c2)c(O)c2c1CC1CC3C(N(C)C)C(O)=C(C(N)=O)C(=O)C3(O)C(O)=C1C2=O` (centres unmarked) [BB]: the MIC in test [8] came to 4 µg/mL (≈ 6.08 µM); in [9], 2 µg/mL (≈ 3.04 µM); in test [1], 1 µg/mL (≈ 1.52 µM); in [10], 0.5 µg/mL (≈ 0.76 µM); in [2], 0.06 µg/mL (≈ 0.0912 µM); in the test with E. coli ATCC 25922, 2 µg/mL (≈ 3.04 µM). Besides, the MIC in [3] was 0.25 µg/mL (≈ 0.38 µM); in test [4], 4 µg/mL (≈ 6.08 µM); in test [6], 4 µg/mL (≈ 6.08 µM); in [7], 4 µg/mL (≈ 6.08 µM); in test [11], 0.12 µg/mL (≈ 0.182 µM); against E. coli UBMS 88-1 (tetB), over 32 µg/mL. Further, the MIC is 8 µg/mL (≈ 12.2 µM) in test [12], 0.12 µg/mL (≈ 0.182 µM) against E. faecalis ATCC 29212 and 16 µg/mL (≈ 24.3 µM) in [13].
For `CN(C)c1cc(NS(=O)(=O)c2ccccc2)c(O)c2c1CC1CC3C(N(C)C)C(O)=C(C(N)=O)C(=O)C3(O)C(O)=C1C2=O` (centres unmarked) [CC, 7-(Dimethylamino)-9-[(phenylsulfonyl)amino]-6-demethyl-6-deoxytetracycline], the MIC was 4 µg/mL (≈ 6.53 µM) in [8]; 4 µg/mL (≈ 6.53 µM) in test [9]; 0.03 µg/mL (≈ 0.049 µM) in test [1]; 0.06 µg/mL (≈ 0.0979 µM) in test [10]; “≦0.015 μg/ml” in test [2]; 2 µg/mL (≈ 3.26 µM) against E. coli ATCC 25922. The MIC in test [3] came out at 4 µg/mL (≈ 6.53 µM); in test [4] it was 4 µg/mL (≈ 6.53 µM); in test [5], 4 µg/mL (≈ 6.53 µM); in test [6], 8 µg/mL (≈ 13.1 µM); in [7] it was 4 µg/mL (≈ 6.53 µM); in [11], 4 µg/mL (≈ 6.53 µM). The MIC was determined as 16 µg/mL (≈ 26.1 µM) in the test on E. coli UBMS 88-1 (tetB), 4 µg/mL (≈ 6.53 µM) in test [12], 0.06 µg/mL (≈ 0.0979 µM) against E. faecalis ATCC 29212 and 16 µg/mL (≈ 26.1 µM) in test [13].
`CN(C)c1cc(NS(=O)(=O)c2cccs2)c(O)c2c1CC1CC3C(N(C)C)C(O)=C(C(N)=O)C(=O)C3(O)C(O)=C1C2=O` (centres unmarked) [DD, 7-(Dimethylamino)-9-[(2-thienylsulfonyl)amino)-6-demethyl-6-deoxytetracycline]: the MIC was 2 µg/mL (≈ 3.23 µM) in [8]; 1 µg/mL (≈ 1.62 µM) in test [9]; 0.5 µg/mL (≈ 0.808 µM) in test [1]; 0.25 µg/mL (≈ 0.404 µM) in test [10]; 0.03 µg/mL (≈ 0.0485 µM) in test [2]; 4 µg/mL (≈ 6.47 µM) in the test on E. coli ATCC 25922. The MIC was 0.03 µg/mL (≈ 0.0485 µM) in [3]; 2 µg/mL (≈ 3.23 µM) in test [4]; 0.5 µg/mL (≈ 0.808 µM) in [5]; 8 µg/mL (≈ 12.9 µM) in test [6]; 4 µg/mL (≈ 6.47 µM) in [7]; 0.25 µg/mL (≈ 0.404 µM) in [11]. The MIC against E. coli UBMS 88-1 (tetB) worked out at 32 µg/mL (≈ 51.7 µM); in [12], 4 µg/mL (≈ 6.47 µM); in the test with E. faecalis ATCC 29212, 0.25 µg/mL (≈ 0.404 µM); in test [13], 16 µg/mL (≈ 25.9 µM).
In the case of `CN(C)c1cc(NS(=O)(=O)c2ccc(Cl)cc2)c(O)c2c1CC1CC3C(N(C)C)C(O)=C(C(N)=O)C(=O)C3(O)C(O)=C1C2=O` (centres unmarked) [EE, 9-[[(4-Chlorophenyl)sulfonyl]amino)-7-(dimethylamino)-6-demethyl-6-deoxytetracycline], the MIC in test [9] was 0.25 µg/mL (≈ 0.386 µM); in [1] it was 0.12 µg/mL (≈ 0.185 µM); in test [10], 0.12 µg/mL (≈ 0.185 µM); in test [2], 0.03 µg/mL (≈ 0.0464 µM); with E. coli ATCC 25922, over 32 µg/mL; in test [3], 0.12 µg/mL (≈ 0.185 µM). For the same molecule, the MIC in test [4] is 1 µg/mL (≈ 1.55 µM); in test [5], 0.12 µg/mL (≈ 0.185 µM); in test [6], over 32 µg/mL; in test [7], 0.5 µg/mL (≈ 0.773 µM); in test [11], 0.12 µg/mL (≈ 0.185 µM); against E. coli UBMS 88-1 (tetB) it was over 32 µg/mL. Besides, the values for the MIC (in test [12]; with E. faecalis ATCC 29212; in test [13]) were 1 µg/mL (≈ 1.55 µM), 0.06 µg/mL (≈ 0.0927 µM) and over 32 µg/mL, respectively.
Consider `CN(C)c1cc(NS(C)(=O)=O)c(O)c2c1CC1CC3C(N(C)C)C(O)=C(C(N)=O)C(=O)C3(O)C(O)=C1C2=O` (centres unmarked) [FF, 7-(Dimethylamino)-9-[(methylsulfonyl)amino]-6-demethyl-6-deoxytetracycline], for which the MIC in test [9] came to 0.25 µg/mL (≈ 0.454 µM); in test [1] it was 0.25 µg/mL (≈ 0.454 µM); in [10] it was 0.06 µg/mL (≈ 0.109 µM); in test [2], 0.03 µg/mL (≈ 0.0545 µM); against E. coli ATCC 25922, 2 µg/mL (≈ 3.63 µM); in [3], 0.12 µg/mL (≈ 0.218 µM). The MIC is 8 µg/mL (≈ 14.5 µM) in [4]; 0.25 µg/mL (≈ 0.454 µM) in test [5]; 2 µg/mL (≈ 3.63 µM) in test [6]; 16 µg/mL (≈ 29.1 µM) in [7]; 0.12 µg/mL (≈ 0.218 µM) in test [11]; 8 µg/mL (≈ 14.5 µM) against E. coli UBMS 88-1 (tetB). Moreover, the MIC was determined as 16 µg/mL (≈ 29.1 µM) in test [12], 0.06 µg/mL (≈ 0.109 µM) with E. faecalis ATCC 29212 and 2 µg/mL (≈ 3.63 µM) in [13].
`COC(=O)Nc1cc(N(C)C)c2c(c1O)C(=O)C1=C(O)[C@]3(O)C(=O)C(C(N)=O)=C(O)[C@@H](N(C)C)C3CC1C2` (stereo partly drawn) [HH, [7S-(7α,10aα)]-[9-(Aminocarbonyl)-4,7-bis(dimethylamino)-5,5a,6,6a,7,10,10a,12-octahydro-1,8,10a,11-tetrahydroxy-10,12-dioxo-2-naphthacenyl]carbamic acid methyl ester]: the MIC against E. faecalis 12201 was 2 µg/mL (≈ 3.77 µM); in [8] it was 0.25 µg/mL (≈ 0.471 µM); in the test on E. coli UBMS 89-1 (tetM) it was 4 µg/mL (≈ 7.54 µM); in test [9], 1 µg/mL (≈ 1.88 µM); in test [1], 0.03 µg/mL (≈ 0.0565 µM); in test [10], 0.25 µg/mL (≈ 0.471 µM). In addition, the MIC result was “≦0.015 μg/ml” in [2]; 2 µg/mL (≈ 3.77 µM) against E. coli ATCC 25922; 0.03 µg/mL (≈ 0.0565 µM) in test [3]; 0.5 µg/mL (≈ 0.942 µM) in test [4]; 0.25 µg/mL (≈ 0.471 µM) in test [5]; 2 µg/mL (≈ 3.77 µM) in test [7]. In addition, the minimum inhibitory concentration (MIC) in test [11] came to 0.03 µg/mL (≈ 0.0565 µM); in the test on E. coli UBMS 88-1 (tetB) it was 16 µg/mL (≈ 30.2 µM); in test [12] it was 2 µg/mL (≈ 3.77 µM); against E. faecalis ATCC 29212, 0.25 µg/mL (≈ 0.471 µM); in [13], 4 µg/mL (≈ 7.54 µM).
On to `CN(C)CC(=O)Nc1cc(N(C)C)c2c(c1O)C(=O)C1=C(O)C3(O)C(=O)C(C(N)=O)=C(O)C(N(C)C)C3CC1C2.O=S(=O)(O)O` (centres unmarked) [II, 7-(Dimethylamino)-9-[[(dimethylamino)acetyl]amino]-6-demethyl-6-deoxytetracycline sulfate], for which the MIC against E. faecalis 12201 amounted to 0.12 µg/mL; in [8], 0.25 µg/mL; against E. coli UBMS 89-1 (tetM) it was 0.12 µg/mL; in test [9], 0.25 µg/mL; in test [1], 0.06 µg/mL; in test [10], 0.06 µg/mL. For the same molecule, the minimal inhibitory concentration (MIC) in [2] is 0.03 µg/mL; against E. coli ATCC 25922 it was 0.12 µg/mL; in test [3] it was 0.12 µg/mL; in test [4] it was 0.06 µg/mL; in test [5], 0.12 µg/mL; in test [7], 1 µg/mL. The MIC is 0.06 µg/mL in [11]; 0.25 µg/mL in the test with E. coli UBMS 88-1 (tetB); 1 µg/mL in test [12]; 0.03 µg/mL against E. faecalis ATCC 29212; 0.25 µg/mL in test [13].

As a reminder, the MIC is the least concentration at which growth counts as inhibited. A high value points to a need for much substance.
